Source: patent publication US8871226B2, “Methods and compositions for the treatment and diagnosis of cancer” (Hafid Mahboubi, priority 2003, dated 2014)

Columns and labels:
[1] = system: Prostate Cancer; assay: Antimycotic treatment of Candida-seropositive patients, prostate cancer; assay type: in vivo, human
Source text: (§1) The inventor has performed many serological tests on patients suffering from various illnesses and particularly from different types of cancer. The inventor has shown that, in many of the patients who tested positive for Candida in the serological tests, after antimycotic treatments, a full recovery was observed, with complete disappearance of the tumours in the case of the patients affected by cancer.
Patient 2: person with Prostate Cancer.
Positive for Candida serological test (640)
The patient was treated with Orungal, 100 mg capsules, 1×1 caps a day for 1 month.
Patient 7: person with Prostate Cancer
Positive candida serological test (320).
The patient was treated with Nizoral (1 tablet 2× day for two weeks, then 1 tablet a day for 30 days.

[2] = system: Breast Cancer; assay: Antimycotic treatment of a Candida-seropositive patient, breast cancer; assay type: in vivo, human; conditions: Patient 3, Candida serological test 320; capsule 100 mg, 1 caps a day for 60 days
Experimental: as §1
Patient 3: person with Breast Cancer
The patient was treated with Orungal, capsule 100 mg, 1×1 caps a day for 60 days.

[3] = system: Ulcerative Colitis; assay: Antimycotic treatment of a Candida-seropositive patient, ulcerative colitis; assay type: in vivo, human; conditions: Patient 5, serological test 320; 100 mg 1 caps a day for 28 days
Experimental: as §1
Patient 5: Ulcerative Colitis.
Positive serological test (320).
The patient was treated with Orungal, 100 mg 1×1 caps a day, for 28 days.

[4] = system: C. glabrata; conditions: some other species of Candida, particularly C. glabrata; cited from earlier work
[5] = system: C. cruzii; conditions: infections caused by C. cruzii; cited from earlier work
[6] = system: candidiasis; conditions: in vivo; cited from earlier work
[7] = system: tumour of the myoma of the uterus; assay: Antimycotic treatment of a Candida-seropositive patient, tumour of the myoma of the uterus; assay type: in vivo, human; conditions: Patient 1, Candida rate 640; 1 tablet 2x day for two weeks, then 1 tablet a day for 30 days
Source text: as §1
A patient, hospitalised, suffering from a tumour of the myoma of the uterus.
The patient was treated with Nizoral (1 tablet 2× day for two weeks, then 1 tablet a day for 30 days).

[8] = system: Psoriasis; assay: Antimycotic treatment of a Candida-seropositive patient, psoriasis; assay type: in vivo, human; conditions: Patient 4, Candida serological test 640; 100 mg 1 capsule a day for 1 month
Experimental: as §1
Positive Candida serological test (640)
The patient was treated with Diflucan, 100 mg 1×1 capsule a day. For 1 month.

[9] = system: Cancer of the Ovary with Liver Metastasis; assay: Antimycotic treatment of a Candida-seropositive patient, cancer of the ovary with liver metastasis; assay type: in vivo, human; conditions: Patient 6, Candida serological test 640; 100 mg 1 capsule a day for 30 days
Experimental: The inventor has performed many serological tests on patients suffering from various illnesses and particularly from different types of cancer.
Patient 6: person with Cancer of the Ovary with Liver Metastasis.
The patient was treated with Diflucan, 100 mg 1 capsule a day. For 30 days

For CCC(C)n1ncn(-c2ccc(N3CCN(c4ccc(OCC5COC(Cn6cncn6)(c6ccc(Cl)cc6Cl)O5)cc4)CC3)cc2)c1=O (stereo not shown) [Orungal], the Result of treatment ([1]; Patient 2, Candida serological test 640, 100 mg capsules, 1 caps a day for 1 month) was “Complete recovery at the end of the treatment with disappearance of the tumour”, the Result of treatment [2] was “Complete recovery at the end of the treatment” and the Result of treatment [3] was “Complete recovery at the end of the treatment”.
For OC(Cn1cncn1)(Cn1cncn1)c1ccc(F)cc1F [Fluconazole, fluconazole], the “Sensitivity compared with C. albicans” value [4] is listed as “less sensitive”, the “Response of infections to treatment” value [5] is listed as “do not respond” and the “Effectiveness in candidiasis compared with amphotericin B” value [6] is listed as “as effective as amphotericin B”.
With CC(=O)N1CCN(c2ccc(OCC3COC(Cn4ccnc4)(c4ccc(Cl)cc4Cl)O3)cc2)CC1 (stereo not shown) [Nizoral] the Result of treatment ([1]; Patient 7, Candida serological test 320, 1 tablet 2x day for two weeks, then 1 tablet a day for 30 days) was “Complete recovery” and the “Result of treatment (tumour)” value [7] was “Disappearance of the tumour at the end of the treatment”.
For OC(Cn1cncn1)(Cn1cncn1)c1ccc(F)cc1F [Diflucan], the Result of treatment [8] was “Complete recovery at the end of the treatment” and the Result of treatment [9] was “Complete recovery with disappearance of the tumours”.
